Values quoted from earlier work in US20160175335A1, “ANTIFUNGAL COMBINATION THERAPY OF TAVABOROLE AND EFINACONAZOLE” (priority 2014, published 2016).

Tested on: dermatophytes, yeasts and non-dermatophyte molds
Conditions: against dermatophytes

## C=C1CCN([C@H](C)[C@](O)(Cn2cncn2)c2ccc(F)cc2F)CC1 [Efinaconazole, ((2R,3R)-2-(2,4-difluorophenyl)-3-(4-methylenepiperidin-1yl)-1-(1H-1,2,4-triazol-1-yl)butan-2-ol)]
  effectiveness in vitro compared with other antifungal agents: more effective in vitro than terbinafine, itraconazole, ciclopirox and amorolfine
